Data taken from US4642355A, “Proline derivatives” (Otsuka Pharmaceutical Factory, Inc., priority 1984, dated 1987).
Where a name gives a salt, the structure may show the parent alone.

Experiments:
[1] = molecular target: T1, angiotensin-converting enzyme (ACE) (Oryctolagus cuniculus, UniProt P12822); experiment: Inhibitory activity against angiotensin-converting enzyme (ACE); type: biochemical, rabbit; conditions: for ACE inhibitory activity higher than Test Compound No. 4 (fold): compared with Test Compound No. 4; for IC50: enzyme from rabbit lung acetone powder, substrate hippurylhistidyl-leucine, 37° C.
T1 construct: enzyme solution prepared from rabbit lung acetone powder; tissue Sigma Chemical Co., Ltd., U.S.A; host or cells: rabbit lung (acetone powder)
T1 sequence (P12822 34-1310): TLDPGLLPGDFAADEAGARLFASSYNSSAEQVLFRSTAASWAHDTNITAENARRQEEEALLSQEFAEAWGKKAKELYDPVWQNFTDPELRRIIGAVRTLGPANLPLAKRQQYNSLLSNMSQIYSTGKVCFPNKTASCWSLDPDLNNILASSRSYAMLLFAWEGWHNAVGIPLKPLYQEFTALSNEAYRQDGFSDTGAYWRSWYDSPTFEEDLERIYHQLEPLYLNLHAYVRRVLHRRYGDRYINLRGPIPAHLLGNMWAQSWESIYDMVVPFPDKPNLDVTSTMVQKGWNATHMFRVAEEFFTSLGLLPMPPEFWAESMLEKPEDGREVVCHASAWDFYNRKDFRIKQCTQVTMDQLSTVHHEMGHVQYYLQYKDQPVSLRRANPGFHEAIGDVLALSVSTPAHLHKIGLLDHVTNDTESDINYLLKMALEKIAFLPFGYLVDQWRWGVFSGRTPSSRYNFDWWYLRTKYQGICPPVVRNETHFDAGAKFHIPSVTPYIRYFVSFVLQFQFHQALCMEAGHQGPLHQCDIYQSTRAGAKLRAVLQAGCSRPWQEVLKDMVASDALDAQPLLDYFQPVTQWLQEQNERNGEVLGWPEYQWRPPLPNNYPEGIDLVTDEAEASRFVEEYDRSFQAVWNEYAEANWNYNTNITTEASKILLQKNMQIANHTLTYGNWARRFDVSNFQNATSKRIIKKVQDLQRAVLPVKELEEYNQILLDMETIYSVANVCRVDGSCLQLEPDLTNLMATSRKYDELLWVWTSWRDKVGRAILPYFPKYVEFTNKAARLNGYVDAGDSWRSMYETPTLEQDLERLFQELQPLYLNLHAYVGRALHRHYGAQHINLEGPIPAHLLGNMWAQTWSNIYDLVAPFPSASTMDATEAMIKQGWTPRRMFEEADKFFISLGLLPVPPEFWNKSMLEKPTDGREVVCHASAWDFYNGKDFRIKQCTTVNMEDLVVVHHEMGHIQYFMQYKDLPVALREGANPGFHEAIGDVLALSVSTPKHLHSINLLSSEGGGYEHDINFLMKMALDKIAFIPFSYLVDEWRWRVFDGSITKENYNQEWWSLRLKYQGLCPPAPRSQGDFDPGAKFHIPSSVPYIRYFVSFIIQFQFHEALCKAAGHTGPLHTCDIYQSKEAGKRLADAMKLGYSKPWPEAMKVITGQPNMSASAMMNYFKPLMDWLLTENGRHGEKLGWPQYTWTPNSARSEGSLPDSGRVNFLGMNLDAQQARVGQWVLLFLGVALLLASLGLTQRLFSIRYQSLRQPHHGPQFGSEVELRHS
Experimental: Inhibitory activity against angiotensin-converting enzyme (ACE)
A 100 μl quantity of an enzyme solution prepared from rabbit lung acetone powder (product of Sigma Chemical Co., Ltd., U.S.A.) was mixed with 100 μl of a sample solution. The mixture was gently shaken at 37° C. for 10 minutes. To the reaction mixture was added 100 μl of a solution containing 6.99 mM of hippurylhistidyl-leucine (product of Peptide Institute, Inc., Japan) as a substrate. The mixture was reacted at 37° C. for 45 minutes while being shaken. The reaction was terminated by addition of 200 μl of a 1N sulfuric acid aqueous solution to the reaction mixture. Sodium chloride (saturation amount) and diethyl ether (2 ml) were added to the reaction mixture to extract the hippuric acid formed by the reaction. The resulting mixture was vigorously shaken for 15 minutes and centrifuged at 2000 rpm for 5 minutes. A 1.5 ml quantity of the ether layer was separated. After the solvent was distilled off, the residue was redissolved in 1.5 ml of distilled water and the absorbance at 228 nm was measured. A control was prepared by repeating the same procedure as above except that 100 μl of distilled water was used in place of the sample solution.
The inhibitory activity was calculated by deducting the absorbance value of the residue formed by addition of the sample solution from that of the control, and the resulting value was divided by the absorbance value of the control and multiplied by 100, thereby giving a percent inhibition. The inhibitory activity was expressed as IC50, i.e., the concentration of the sample solution in the reaction mixture in which concentration 50% inhibition is achieved.
The test compounds used in the experiment are shown below.

[2] = tested on: angiotensin-converting enzyme (ACE); experiment: ACE inhibitory effect in normotensive rats (inhibition of pressor response to angiotensin I); type: in vivo; conditions: 1 mg/kg directly to the stomach, male Wistar rats, urethane anesthesia, AI/AII ratio
Experimental: ACE Inhibitory effect in normotensive rats
Male Wistar rats weighing 200 to 400 g were anesthetized by the intraperitoneal injection of urethane (1.25 g/kg) and held in the supine position. The degree of inhibition of pressor response to angiotensin (A) I was determined using these rats. The blood pressure was measured with a femoral artery cannula connected to a transducer (product of Nihon Kohden Kabushiki Kaisha, Japan, Model MPU-0.5-290-0-III) and recorded in terms of a mean blood pressure value through a carrier amplifier (product of Nihon Kohden Kabushiki Kaisha, Japan, Model RP-5) on a multipurpose polygraph (product of Nihon Kohden Kabushiki Kaisha, Japan, Model RM-85). The rats were set in an experimental device and left therein for 1 hour to stabilize the hemodynamics. Then experiments were commenced. Since the magnitude of the pressor response to AI varies with time, the ratio of the responses to AI and AII (AI/AII ratio) was used to determine the magnitude of the pressor response to AI which ratio remained more constant. Through the cannulated femoral vein, AI (300 ng/kg) was administered first and AII (300 ng/kg) was given in 5 minutes to measure an AI/AII ratio. At 30 minutes after the first administration of AI, AI (300 ng/kg) was similarly administered and AII (300 ng/kg) was given in 5 minutes, followed by measuring an AI/AII ratio. This procedure was repeated until a constant value of AI/AII ratio was obtained. (The mean value of AI/AII ratios each resulting from the repeated procedure is represented as "C" in an equation to be shown later). At 10 minutes after the final administration of AII, an aqueous solution containing 1 mg/kg of each test compound was given directly to the stomach through a vinyl tube. At 10 minutes after administration of the test compound, AI (300 ng/kg) was given and at 5 minutes later, AII (300 ng/kg) was administered, followed by measurement of the AI/AII ratio (which was represented as "E" in the following equation). An ACE percent inhibition was calculated according to the equation indicated below. [formula]
Subsequently at each time of 60, 120 and 240 minutes after the administration of the test compound, AI (300 ng/kg) was given in the same manner as above and AII (300 ng/kg) was administered in 5 minutes, whereupon an ACE percent inhibition was calculated in the same way.
The results are shown below in Table 26 in which the test compounds listed are those prepared in the Examples indicated therein.

[3] = 15 min. after administration, 1 mg/kg
[4] = 60 min. after administration, 1 mg/kg
[5] = 120 min. after administration, 1 mg/kg
[6] = 240 min. after administration, 1 mg/kg

| SMILES | ACE Percent Inhibition, mean ± SD ([2]; 15 min. after administration) | ACE Percent Inhibition, mean ± SD ([2]; 60 min. after administration) | ACE Percent Inhibition, mean ± SD ([2]; 120 min. after administration) | ACE Percent Inhibition, mean ± SD ([2]; 240 min. after administration) | other results |
| --- | --- | --- | --- | --- | --- |
| CCCCCCSC[C@H](NC(C)C(=O)N1CCC[C@H]1C(=O)O)C(=O)O (single isomer, unassigned) [Test Compound 1] | – | – | – | – | ACE inhibitory activity higher than Test Compound No. 4 (fold) [1]: about 24 times; IC50 [1]: 521 pM |
| CCCCCCSC[C@H](NC(C)C(=O)N1CCC[C@H]1C(=O)O)C(=O)O (single isomer, unassigned) [Test Compound 2] | – | – | – | – | ACE inhibitory activity higher than Test Compound No. 4 (fold) [1]: about 9.4 times; IC50 [1]: 1350 pM |
| CCCCCC(SC[C@H](NC(C)C(=O)N1CCC[C@H]1C(=O)O)C(=O)OCC)C(=O)OCC (stereo partly shown) [Ex. No. 67*^1] | – | – | – | – | ACE Percent Inhibition, mean ± SD [2, 3]: 23 ± 35%; ACE Percent Inhibition, mean ± SD ([2]; 15 min. after administration, listed as Ex. No. 67*^2, 1 mg/kg): 46 ± 29%; ACE Percent Inhibition, mean ± SD [2, 4]: 55 ± 11%; ACE Percent Inhibition, mean ± SD ([2]; 60 min. after administration, listed as Ex. No. 67*^2, 1 mg/kg): 76 ± 10%; ACE Percent Inhibition, mean ± SD [2, 5]: 59 ± 4%; ACE Percent Inhibition, mean ± SD ([2]; 120 min. after administration, listed as Ex. No. 67*^2, 1 mg/kg): 61 ± 14%; ACE Percent Inhibition, mean ± SD [2, 6]: 63 ± 9%; ACE Percent Inhibition, mean ± SD ([2]; 240 min. after administration, listed as Ex. No. 67*^2, 1 mg/kg): 65 ± 7% |
| CCCCCCC(SC[C@H](NC(C)C(=O)N1CCC[C@H]1C(=O)O)C(=O)OCC)C(=O)OCC (stereo partly shown) [Ex. No. 71*^4] | – | – | – | – | ACE Percent Inhibition, mean ± SD [2, 3]: 47 ± 24%; ACE Percent Inhibition, mean ± SD [2, 4]: 69 ± 6%; ACE Percent Inhibition, mean ± SD [2, 5]: 70 ± 10%; ACE Percent Inhibition, mean ± SD [2, 6]: 60 ± 10% |
| CCCCCCC(SC[C@H](NC(C)C(=O)N1CCC[C@H]1C(=O)O)C(=O)OCC)C(=O)OCC (stereo partly shown) [Ex. No. 71*^ 3] | – | – | – | – | ACE Percent Inhibition, mean ± SD [2, 3]: 39 ± 34%; ACE Percent Inhibition, mean ± SD [2, 4]: 65 ± 14%; ACE Percent Inhibition, mean ± SD [2, 5]: 60 ± 2%; ACE Percent Inhibition, mean ± SD [2, 6]: 67 ± 3% |
| CCCCCCSC[C@H](NC(C)C(=O)N1CCC[C@H]1C(=O)O)C(=O)OCC (stereo partly drawn) [Example 5, N-[(R)-1-ethoxycarbonyl-2-hexylthioethyl]-alanyl-(S)-proline(β-isomer) and L-arginine salt thereof] | 28 ± 14% | 54 ± 3% | 54 ± 17% | 55 ± 7% | – |
| CCCCCCCSC[C@H](NC(C)C(=O)N1CCC[C@H]1C(=O)O)C(=O)OCC (stereo partly drawn) [Example 18, N-[(R)-1-ethoxycarbonyl-2-heptylthioethyl]-alanyl-(S)-proline (β-isomer) and maleate] | 77 ± 8% | 75 ± 23% | 84 ± 10% | 63 ± 6% | – |
| CCOC(=O)[C@H](CSCC1CCCCC1)NC(C)C(=O)N1CCC[C@H]1C(=O)O (stereo partly shown) [Example 21] | 22 ± 25% | 38 ± 29% | 58 ± 15% | 56 ± 14% | – |
| CCOC(=O)[C@H](CSCC=C(C)C)NC(C)C(=O)N1CCC[C@H]1C(=O)O (stereo partly shown) [Example 32] | 15 ± 9% | 31 ± 7% | 33 ± 9% | 29 ± 8% | – |
| CCCCCCCSC[C@H](NC(C)C(=O)N1CCC[C@H]1C(=O)OC)C(=O)OCC (stereo partly shown) [Example 39] | 39 ± 59% | 79 ± 30% | 76 ± 5% | 88 ± 3% | – |
| CCCCCCCSC[C@H](NC(C)C(=O)N1CCC[C@H]1C(=O)OCC)C(=O)OCC (stereo partly shown) [Example 40] | 37 ± 19% | 55 ± 18% | 57 ± 13% | 70 ± 9% | – |
| CCCCCCCSC[C@H](NC(C)C(=O)N1CCC[C@H]1C(=O)OCc1ccccc1)C(=O)OCC (stereo partly shown) [Example 42] | 27 ± 1% | 17 ± 18% | 57 ± 7% | 66 ± 7% | – |
| CCCCCCCCSC[C@H](NC(C)C(=O)N1CCC[C@H]1C(=O)O)C(=O)OCC (stereo partly drawn) [Example 81, N-[(R)-1-ethoxycarbonyl-2-octylthio-ethyl]-alanyl-(S)-proline (β-isomer).L-arginine salt] | 14 ± 17% | 43 ± 18% | 47 ± 11% | 55 ± 6% | – |
